Experiments:
rat oligodendrocytes = assay: Cultured rat oligodendrocytes treated with recombinant rat IFN-γ; assay type: cell-based
Procedure: To test whether apoptosis of oligodendrocytes that is induced by INF-γ affects ER stress, the effect on the morphology, the degree of apoptosis and the expression of ER markers was studied in a culture of oligodendrocyte precursor cells (OPC). Oligodendrocyte progenitors were cultured from neonatal rat brains (Baerwald, et al. (1998) J. Neurosci Res. 52: 230-239). A mixed glial culture was grown in flasks in medium containing 10% fetal bovine serum (FBS), and when the astrocyte layer became confluent (10-14 days), oligodendrocyte progenitors were separated from astrocytes and microglia using an orbital shaker. Cells, greater than 95% of which were A2B5 positive, GFAP negative and CD11b negative, were cultured in 0.5% FBS containing medium, which also contained PDGF (10 ng/ml) and FGF (5 ng/ml) (both from R&D Systems, Minneapolis, Minn.). Then cells were switched to 0.5% FBS medium without PDGF and FGF for differentiation. After 5 days in the differentiating medium, approximately 40% of cells were positive for myelin protein 2′3′-cyclic nucleotide 3′-phosphodiestaerase (CNP). 70 U/ml recombinant rat IFN-γ (Calbiochem, La Jolla, Calif.) was added to the cells that had been allowed to differentiation for 5 days. […] To examine the oligodendroglial response to general ER stress-inducing agents, progenitor cells that had been cultured in differentaition medium for 5 or 7 days were treated with 2 μg/ml of tunicamycin (Sigma Aldrich) for 6 hours.
The level of apoptosis of the OPC cells was determined by double staining CNP (1:200; Sternberger Monoclonals, Lutherville, Md.) and TUNEL using the ApopTag Kit (Serologicals Corp., Norcross, Calif.) and following the manufacturer's instructions. Apoptosis was also evaluated by measuring the activity of caspase-3 in oligodendrocyte lysates using the Fluorimetric Caspase 3 Assay Kit (Sigma, St. Louis, Mo.), according to the manufacturer's instructions.
To determine whether INF-γ affects ER function, the RNA expression of ER markers binding immunoglobulin protein (BIP), CAAT enhancer binding protein homologous protein (CHOP), and caspase 12 was determined using real time PCR. RNA was isolated from cultured cells and mice brain using Trizol reagent (Invitrogen, Carlsbad, Calif.) and treated with DNAaseI (Invitrogen) to eliminate genomic DNA. Reverse transcription was performed using Superscript First Strand Synthesis System for RT-PCR kit (Invitrogen). Real-time PCR was performed with iQ Supermix (Bio-Rad, Hercules, Calif.) on a Bio-Rad iQ real-time PCR detection system (Bio-Rad). The following primers and probes (Integrated DNA Technologies Inc., Coralville, Iowa) for real-time PCR were used: mouse CHOP sense primer […] (SEQ ID NO: 34); mouse CHOP antisense primer […] (SEQ ID NO: 35); CHOP probe […] (SEQ ID NO: 36); mouse BIP sense primer […] (SEQ I DNO: 31); mouse BIP antisense primer […] (SEQ ID NO: 32); BIP probe […] (SEQ ID NO: 33); mouse caspase 12 sense primer […] (SEQ ID NO: 37); and mouse caspase antisense primer […] (SEQ ID NO: 38).
To determine the effect of INF-γ on the level of phosphorylated eIF-2α and caspase 12 proteins, western blot analysis was performed using the following antibodies anti-eIF-2α (1:500; Santa Cruz), anti-p-eIF-2α (1:1000, Cell signaling Technology), anti-caspase-12 (1:500; Santa Cruz) and anti-actin (1:1000; Sigma, St Louis, Mo.), and according to the following protocol. […]

[1] = tested on: EAE demyelinating lesions; assay: EAE, CNS delivery of INF-γ at the recovery stage (doxycycline withdrawn at PID7); assay type: in vivo, mice
From the text: Double transgenic mice that allow for temporally regulated delivery of INF-γ to the CNS (Lin et al., J Neurosci 24:10074-10083 (2004)) were used to assess the role of INF-γ in the pathogenesis of EAE. GFAP/tTA; TRE/IFN-γ double transgenic mice, as described in Example 1 were used to determine the effect of INF-γ on the demyelination caused by EAE. All mice were fed doxycycline from the day of conception to repress the expression of INF-γ, and were immunized with myelin oligodendrocyte protein (MOG35-55) to induce EAE. AT day 7 postimmunization (PID7), doxycycline was withdrawn from the experimental group (PID7 DOX−).
The level of INF-γ was determined in the control (DOX+) and the PID7 DOX− mice using an ELISA immunoassay as described in Example 1, and the severity of the disease was assessed as a function of a clinical score. Clinical severity scores were recorded daily according to a 0-5 point scale, where 0=healthy, 1=flaccid tail, 2=ataxia and/or paresis of hind limbs, 3=paralysis of hind limbs and/or paresis of forelimbs, 4=tetraparalysis, and 5=moribund or dead.
The spinal cord from DOX+ and DOX− animals with EAE was immunostained for MBP, and the remyelination of axons was evaluated. The number of oligodendrocytes was determined in the spine from DOX+ and DOX− mice as the number of CC1 positive cells. Axonal damage was evaluted by immunostaining of non-phosphorylated neurofilament-H. Antibodies to non-phosphorylated neurofilament-H were SM132 diluted to 1:1000 and obtained from Sternberger Monoclonals.
INF-γ is known to induce MHC antigens and activate macrophages and T lymphocytes. The inflammatory effect of INF-γ was studied in the CNS during remyelination by determining the infiltration of T cells and macrophages, and measuring the expression of MHC-1, TNF-a, IL-2, IL-12 and IL-17. Immunohistochemistry was performed in tissues from the DOX+ and DOX− mice with EAE as described in Example 4. Experimental procedures were followed as described in the examples above.

[2] = DOX− vs DOX+, spinal cord PID50

“IFN-γ: pleotropic cytokine secreted by activated T lymphocytes and natural killer cells; delivered to the CNS by transgene or added as recombinant protein” was tested, and the “caspase-3 activity in cell lysates” value (rat oligodendrocytes; 70 U/ml IFN-γ) was “markedly increased”, the “caspase-12 expression (real-time PCR)” value (rat oligodendrocytes; 70 U/ml IFN-γ) was “induction of caspase-12 was observed” and the “level of phosphorylated eIF-2α (Western blot)” value (rat oligodendrocytes; 70 U/ml IFN-γ) was “significantly elevated”. The “apoptosis (TUNEL and CNP double labeling)” value (rat oligodendrocytes; 70 U/ml IFN-γ for 48 h) was “induced apoptosis in a significant number of oligodendrocytes”, the cell morphology (rat oligodendrocytes; 70 U/ml IFN-γ for 48 h, cells differentiated 5 days) was “abnormal morphological changes” and the “level of the active fragment of caspase-12 (Western blot)” value (rat oligodendrocytes; after 48 h of IFN-γ treatment) was “strongly elevated”. The “number of CC1 positive oligodendrocytes” value ([1]; DOX− animals, PID50) was “significantly decreased”, the “mice that developed hind limb paralysis” value ([1]; DOX− mice, PID17) was 24 of 30 and the “mean maximum clinical score” value ([1]; DOX− mice, PID17, 0-5 scale) was 2.69±0.69. For the same substance, the clinical score ([1]; DOX− mice, PID50) was roughly 2, the “mice continuing to suffer from hind limb paralysis” value ([1]; DOX− mice, PID50) was 12/24 and the “axonal damage (non-phosphorylated neurofilament-H immunostaining)” value ([1]; DOX− vs DOX+) was “not affected”. The “level of MBP in the lumbar spinal cord (immunostaining)” value ([1]; DOX− vs DOX+ mice) was “notably reduced”, the “expression of IL-17 (real time PCR)” value [1, 2] was “decrease” and the “expression of MHC-1, TNF-a, LL2 and IL-12 (real time PCR)” value [1, 2] was “increased”. For the same substance, the “expression of iNOs and IL-23 (real time PCR)” value [1, 2] was “did not alter” and the “number of infiltrating T cells and macrophages in the lumbar spinal cord (CD3, CD11b)” value ([1]; mouse, in vivo) was “did not increase significantly”.
